In patent publication US9809597B2, “Ganciclovir derivatives for modulating innate and adaptive immunity and for use in immunotherapy” (The Board of Trustees of the Leland Stanford Junior …, priority 2015, dated 2017):

Key:
[1] = tested on: BV-2 cells; experiment: RT-PCR for CXCL10 and IFNβ transcripts in BV-2 cells; type: cell-based, mouse; conditions: for induction of CXCL10 mRNA / induction of IFNβ transcript: 200 μM; for induction of IFNβ transcript: microglia (BV-2, primary); for induction of CXCL10 mRNA on neutralization of IFNβ with an antibody: 200 μM with anti-IFNβ antibody, 4 hours
Protocol: (§1) BV-2 mouse microglia cells were grown in DMEM+10% FBS and THP-1 human monocyte cells were grown in RPMI-40+10% FBS+0.05 mM β-mercaptoethanol at 37° C., 5% CO2. Adherent cells were split using 1×TrypLE (Gibco). For cellular assays, cells were treated with the following concentrations of drugs as indicated in the DMEM without serum: 100-200 μM ganciclovir, 10 ng/ml IFNγ (R&D systems), 100 ng/ml LPS (Sigma-Aldrich), 1-10 μM Fludarabine (Selleckchem), 1 μM Ruxolitinib (Selleckchem), 1 μM TG-101348 (Selleckchem), 1 μM Amlexanox (Tocris bioscience) unless otherwise noted. All experiments were run in triplicates and replicated at least 3 times with cell lines and at least twice with primary microglia. Average data are shown for cell lines and representative data are shown for primary cells. Secreted signaling proteins were measured in supernatants from cultured cells stimulated with GCV and conditioned for 24 hours in the absence of serum using two independent Luminex arrays (Human Immune Monitoring Center, Stanford and Eve technologies, Canada). Nitrite assay was performed on conditioned culture supernatants of cells stimulated with drugs for 24 hours using the Griess Reagent System (Promega) according to manufacturer's instructions. To assess cellular viability, cell confluence was measured using an automated microscope (Cellavista; Roche).
(§2) RNA was isolated from cells using RNeasy mini kit from Qiagen. DNased RNA was converted to cDNA using SuperScript III reverse transcriptase kit (Life technologies). The cDNA was used to quantify specific targets using SYBR green in Roche Lightcycler 480. ΔΔCt values normalized against the experimental control to determine fold change in mRNA for each sample compared to untreated or vehicle treated control. β-actin or Ubc or both were used as housekeeping genes. Primer sequences were obtained from PrimerBank. Fold change is shown compared to the vehicle treated or untreated cells, unless otherwise noted.

[2] = tested on: THP-1 human monocyte cells; experiment: RT-PCR for CXCL10 in THP-1 cells; type: cell-based; conditions: 200 μM, 8-24 hours
Protocol: as §1, with “Roche). […]” for “Roche).”

[3] = tested on: BV-2 microglia; experiment: siRNA knockdown (STING, IRF3, Stat1, Jak2), then RT-PCR for CXCL10; type: cell-based, mouse; conditions: for CXCL10 or IFNβ mRNA expression after siRNA knockdown of Stat1 and Jak2 or lack of Stat1: BV-2 cells (siRNA) or Stat1 knockout primary microglia, 200 μM
Protocol: Smartpool siRNAs against mouse targets were bought from Dharmacon and transfected in microglia cells using Viromer Blue from Lipocalyx at a concentration of 50 nM according to manufacturer's instructions. Drugs were added cells after 24 hours of transfection and assays done 24 hours after addition of drugs.
as §2

[4] = tested on: BV-2 and primary microglia stimulated with IFNγ and LPS; experiment: RT-PCR of inflammatory transcripts in IFNγ/LPS stimulated microglia; type: cell-based, mouse; conditions: IFNγ/LPS stimulated BV-2 microglia, 200 μM, 24 hours
Protocol: BV-2 mouse microglia cells were grown in DMEM+10% FBS and THP-1 human monocyte cells were grown in RPMI-40+10% FBS+0.05 mM β-mercaptoethanol at 37° C., 5% CO2. Adherent cells were split using 1×TrypLE (Gibco). For cellular assays, cells were treated with the following concentrations of drugs as indicated in the DMEM without serum: 100-200 μM ganciclovir, 10 ng/ml IFNγ (R&D systems), 100 ng/ml LPS (Sigma-Aldrich), 1-10 μM Fludarabine (Selleckchem), 1 μM Ruxolitinib (Selleckchem), 1 μM TG-101348 (Selleckchem), 1 μM Amlexanox (Tocris bioscience) unless otherwise noted. All experiments were run in triplicates and replicated at least 3 times with cell lines and at least twice with primary microglia. Average data are shown for cell lines and representative data are shown for primary cells. Secreted signaling proteins were measured in supernatants from cultured cells stimulated with GCV and conditioned for 24 hours in the absence of serum using two independent Luminex arrays (Human Immune Monitoring Center, Stanford and Eve technologies, Canada). Nitrite assay was performed on conditioned culture supernatants of cells stimulated with drugs for 24 hours using the Griess Reagent System (Promega) according to manufacturer's instructions. To assess cellular viability, cell confluence was measured using an automated microscope (Cellavista; Roche). Mice were housed and bred according to the Institutional Animal Care and Use Committee guidelines. Primary microglia and astrocytes were isolated from P0-P3 C57BL/6 mouse pups. Cortices from pups were isolated, meninges removed and tissue was dissociated using a 25-gauge needle. Two cortices were plated on each poly-L-lysine coated T-75 flasks in DMEM/F12+10% FBS+1% penicillin/streptomycin. Microglia and astrocyte co-cultures were maintained for 3 weeks, after which microglia were isolated using CD11b magnetic beads (Miltenyi Biotec) according to the manufacturer's instructions. Isolated microglia were allowed to recover for 1-2 days and processed for cellular assays described above. RNA was isolated from cells using RNeasy mini kit from Qiagen. […] was converted to cDNA using SuperScript III reverse transcriptase kit (Life technologies). The cDNA was used to quantify specific targets using SYBR green in Roche Lightcycler 480. ΔΔCt values normalized against the experimental control to determine fold change in mRNA for each sample compared to untreated or vehicle treated control. β-actin or Ubc or both were used as housekeeping genes. Primer sequences were obtained from PrimerBank. Fold change is shown compared to the vehicle treated or untreated cells, unless otherwise noted.

[5] = tested on: primary microglia; experiment: RT-PCR for CXCL10 and IFNβ transcripts in primary microglia (wildtype, tk KO, STING^gt/gt); type: cell-based, mouse; conditions: 200 μM, 6 hours; for CXCL10 mRNA in microglia from tk1 knockout mice: adult tk1 knockout primary microglia; for induction of CXCL10 mRNA in STING^gt/gt primary microglia / induction of IFNβ mRNA in STING^gt/gt primary microglia: primary microglia lacking functional STING
Protocol: Mice were housed and bred according to the Institutional Animal Care and Use Committee guidelines. Primary microglia and astrocytes were isolated from P0-P3 C57BL/6 mouse pups. Cortices from pups were isolated, meninges removed and tissue was dissociated using a 25-gauge needle. Two cortices were plated on each poly-L-lysine coated T-75 flasks in DMEM/F12+10% FBS+1% penicillin/streptomycin. Microglia and astrocyte co-cultures were maintained for 3 weeks, after which microglia were isolated using CD11b magnetic beads (Miltenyi Biotec) according to the manufacturer's instructions. Isolated microglia were allowed to recover for 1-2 days and processed for cellular assays described above.
For tk KO experiments only, microglia were isolated from adult mouse brains using the neural dissociation kit (Miltenyi Biotec) according to manufacturer's protocol followed by CD11b magnetic bead enrichment. Isolated cells were cultured for 3-4 days before the experiment.
as §2

[6] = tested on: IFNγ/LPS stimulated BV-2 microglia; experiment: Nitrite assay (Griess) on culture supernatants; type: cell-based, mouse; conditions: 24 hours
Protocol: as §1

[7] = BV-2 microglia, siRNA 24 hours, then 200 μM for 24 hours

Question: With `NC(=O)c1ncn([C@@H]2O[C@H](CO)[C@@H](O)[C@H]2O)n1` [Ribavirin] as the molecule, how does the “induction of CXCL10 mRNA” value ([1]; BV-2 cells, 24 hours) read?
Answer: The value was “failed to induce”.

Question: Which results are given for `Cc1ccc2c(=O)c3cccc(CC(=O)O)c3oc2c1C` [DMXAA]?
Answer: induction of CXCL10 mRNA ([1]; BV-2 cells, 24 hours): strongly induced; induction of IFNβ transcript [1]: strongly induced; induction of CXCL10 mRNA in human monocyte cell line [2]: did not

Question: `Nc1ccn(C[C@@H](CO)OCP(=O)(O)O)c(=O)n1` [Cidofovir] was tested. Which “induction of CXCL10 mRNA” value ([1]; BV-2 cells, 24 hours) did it give?
Answer: The value was “failed to induce”.

Question: `Nc1nc2c(ncn2CCC(CO)CO)c(=O)[nH]1` [Penciclovir] was tested. Which “induction of CXCL10 mRNA” value ([1]; BV-2 cells, 24 hours) did it give?
Answer: The value was “failed to induce”.

Question: What does the source list for `Nc1nc2c(ncn2[C@@H]2O[C@@H]3COP(=O)(O)O[C@H]4[C@@H](O)[C@H](n5cnc6c(N)ncnc65)O[C@@H]4COP(=O)(O)O[C@@H]2[C@@H]3O)c(=O)[nH]1` [cGAMP, cyclic-GAMP]?
Answer: CXCL10 or IFNβ mRNA expression after siRNA knockdown of Stat1 and Jak2 or lack of Stat1 [3]: significantly reduced; induction of CXCL10 mRNA on neutralization of IFNβ with an antibody ([1]; BV-2 cells): partly reduced; induction of CXCL10 mRNA ([1]; BV-2 cells, 24 hours): strongly induced; induction of IFNβ transcript [1]: strongly induced

Question: `Nc1nc2nc[nH]c2c(=O)[nH]1` [guanine] was tested. Which “induction of CXCL10 mRNA” value ([1]; BV-2 cells, 24 hours) did it give?
Answer: The value was “failed to induce”.

Question: How did the “inhibition of CXCL10 production in response to GCV and diGCV” value ([1]; BV-2 cells, 24 hours, 10 μM Fludarabine or 1 μM Jak inhibitor with 200 μM GCV or diGCV) turn out when `Cc1cnc(Nc2ccc(OCCN3CCCC3)cc2)nc1Nc1cccc(S(=O)(=O)NC(C)(C)C)c1` [TG101348] was run?
Answer: The value was “strongly inhibited”.

Question: What about the “inhibition of CXCL10 production in response to cGAMP” value ([1]; BV-2 cells, 24 hours, 10 μM Fludarabine or 1 μM Jak inhibitor with 200 μM cGAMP) of the same molecule?
Answer: Its value is “somewhat less pronounced”.

Question: `Nc1nc2c(ncn2[C@@H]2O[C@H](CO)[C@@H](O)[C@H]2O)c(=O)[nH]1` [guanosine] was tested. Which “induction of CXCL10 mRNA” value ([1]; BV-2 cells, 24 hours) did it give?
Answer: Its value is “failed to induce”.

Question: Which “induction of CXCL10 mRNA” value ([1]; BV-2 cells, 24 hours) does the source give for `O=C(O)P(=O)(O)O` [Foscarnet] here?
Answer: The value was “failed to induce”.

Question: With `NC1=Nc2c(ncn2COC(CO)CO)C(OCCCSSCCCOC2NC(N)=Nc3c2ncn3COC(CO)CO)N1` (centres unmarked) [thiol-GCV, 2-[(2-Amino-6-{3-[3-(2-amino-9-{[2-hydroxy-1-(hydroxymethyl)ethoxy]methyl}-6,9-dihydro-1H-purin-6-yloxy)propyldithio]propoxy}-6,9-dihydro-1H-purin-9-yl)methoxy]-1,3-propanediol] as the molecule, how does the “induction of CXCL10 mRNA” value ([1]; BV-2 cells, 24 hours) read?
Answer: The value was “increased potency”.

Question: `NC1=Nc2c(ncn2COC(CO)CO)C(OCCOCCOCCOCCO)N1` (centres unmarked) [monoGCV, 2-{[2-Amino-6-(2-{2-[2-(2-hydroxyethoxy)ethoxy]ethoxy}ethoxy)-6,9-dihydro-1H-purin-9-yl]methoxy}-1,3-propanediol] was tested. Which “inflammatory markers (transcripts)” value [4] did it give?
Answer: The value was “potently reduced”.

Question: What about the “CXCL10 or IFNβ mRNA expression after siRNA knockdown of Stat1 and Jak2 or lack of Stat1” value [3] of the same molecule?
Answer: The value was “significantly reduced”.

Question: What about the “CXCL10 mRNA in microglia from tk1 knockout mice” value [5] of the same molecule?
Answer: The value was “triggered CXCL10 independent of endogenous tk1”.

Question: What about the “induction of CXCL10 mRNA in STING^gt/gt primary microglia” value [5] of the same molecule?
Answer: The value was “failed to induce”.

Question: What about the “induction of IFNβ mRNA in STING^gt/gt primary microglia” value [5] of the same molecule?
Answer: The value was “failed to induce”.

Question: And the “induction of CXCL10 mRNA on neutralization of IFNβ with an antibody” value ([1]; BV-2 cells)?
Answer: Its value is “partly reduced”.

Question: What about the “microglial nitric oxide production (nitrite assay)” value [6] of the same molecule?
Answer: Its value is “potently reduced”.

Question: Which results are given for `NC1=Nc2c(ncn2COC(CO)CO)C(OCCOCCOCCOCCOc2nc(N)nc3c2ncn3COC(CO)CO)N1` (centres unmarked) [diGCV, 2-({2-Amino-6-[2-(2-{2-[2-(2-amino-9-{[2-hydroxy-1-(hydroxymethyl)ethoxy]methyl}-9H-purin-6-yloxy)ethoxy]ethoxy}ethoxy)ethoxy]-6,9-dihydro-1H-purin-9-yl}methoxy)-1,3-propanediol]?
Answer: inflammatory markers (transcripts) [4]: potently reduced; CXCL10 or IFNβ mRNA expression after siRNA knockdown of Stat1 and Jak2 or lack of Stat1 [3]: significantly reduced; capacity to induce CXCL10 after siRNA knock down of STING [3, 7]: largely abrogated; potential to induce CXCL10 mRNA after siRNA knockdown of IRF3 [3, 7]: inhibited; CXCL10 mRNA in microglia from tk1 knockout mice [5]: triggered CXCL10 independent of endogenous tk1; induction of CXCL10 mRNA in STING^gt/gt primary microglia [5]: failed to induce; induction of IFNβ mRNA in STING^gt/gt primary microglia [5]: failed to induce; induction of CXCL10 mRNA on neutralization of IFNβ with an antibody ([1]; BV-2 cells): partly reduced; induction of CXCL10 mRNA ([1]; BV-2 cells, 24 hours): increased potency; microglial nitric oxide production (nitrite assay) [6]: potently reduced

Question: With `Nc1ncnc2c1ncn2[C@@H]1O[C@H](CO)[C@@H](O)[C@@H]1O` [Vidarabine] as the molecule, how does the “induction of CXCL10 mRNA” value ([1]; BV-2 cells, 24 hours) read?
Answer: The value was “failed to induce”.

Question: How did the “induction of CXCL10 mRNA” value ([1]; BV-2 cells, 24 hours) turn out when `Nc1nc2c(ncn2COCCO)c(=O)[nH]1` [Acyclovir] was run?
Answer: The value was “failed to induce”.

Question: Which “induction of CXCL10 mRNA” value ([1]; BV-2 cells, 24 hours) does the source give for `Nc1nc2c(ncn2[C@@H]2O[C@@H]3COP(=O)(O)O[C@H]4[C@@H](O)[C@H](n5cnc6c(=O)[nH]c(N)nc65)O[C@@H]4COP(=O)(O)O[C@H]3[C@H]2O)c(=O)[nH]1` [c-diGMP] here?
Answer: Its value is “strongly induced”.

Question: And the “induction of IFNβ transcript” value [1]?
Answer: Its value is “strongly induced”.

Question: `CC(C)c1ccc2oc3nc(N)c(C(=O)O)cc3c(=O)c2c1` [Amlexanox] was tested. Which “inhibition of CXCL10 mRNA induction by GCV and diGCV (Tbk1 inhibition)” value ([1]; BV-2 cells, 1 μM Amlexanox with 200 μM GCV or diGCV, 24 hours) did it give?
Answer: Its value is “inhibited”.
